How the values were obtained:
[1] = tested on: nuclear NANOG; experiment: Needle biopsy tumor samples before and after 28 days treatment, phase I patients: nuclear NANOG staining; type: in vivo, human; details: after 28 days treatment, patient with positive NANOG and STK33 staining
Protocol: (§1) Understanding the clinical relevance of the stemness markers and identifying predictive biomarkers assists clinical development by selecting patients that will most likely to derive clinical benefit from treatment with the Compound of the Invention. In current studies, we studied stemness gene marker in biopsy tumor as well as archival tumor samples from patients. […] Archival tissue from patients receiving the Compound of the Invention was analyzed via immunohistochemistry to determine whether response to the drug was correlated with either NANOG or STK33. […] Importantly, 90.9% of the tumors with STK33 nuclear staining were also positive for nuclear NANOG staining and there was a significant correlation between nuclear STK33 and nuclear NANOG (P<0.0022).

[2] = tested on: nuclear STK33; experiment: Needle biopsy tumor samples before and after 28 days treatment, phase I patients: nuclear STK33 staining; type: in vivo, human; details: after 28 days treatment, patient with positive NANOG and STK33 staining
Protocol: as §1

[3] = tested on: cancer stem cell markers; experiment: Cancer stem cell markers in biopsied tumor tissue of study patients; type: in vivo, human
Protocol: Escalating doses from 10 mg to 450 mg once daily were administered to 26 patients. Maximum tolerated dose (MTD) was not reached. […] Of 20 evaluable patients, 11 (55%) had stable disease (SD) with a median time to progression of 16 weeks.
Encouraging signs of anti-tumor activity have been observed in pretreated patients with advanced cancer.

[4] = tested on: Advanced Solid Tumors; experiment: Dose escalation study of the Compound of the Invention in adult patients with advanced solid tumors (Phase I); type: in vivo
Text: In this study, the Compound of the Invention was given orally, continuously, in 28-day cycles until disease progression, unacceptable toxicity, or other discontinuation criteria were met.

CCN(CC)CCNC(=O)c1c(C)[nH]c(/C=C2\C(=O)Nc3ccc(-c4csc(-c5ccccc5)n4)cc32)c1C [Compound of the Invention]
Reduction of nuclear NANOG [1]: potent in reducing nuclear NANOG | Reduction of nuclear STK33 [2]: potent in reducing nuclear NANOG and STK33 | Inhibition of cancer stem cell markers [3]: inhibition of cancer stem cell markers was observed | Patients with tumor regression and/or prolonged stable disease (≧16 weeks), percent [4]: 50% | Grade 3 diarrhea, number of subjects ([4]; 450 mg once daily): 2 subjects | Number of Patients with minor regression or SD ≧16 wks. ([4]; Colorectal Cancer, 5 patients evaluable): 3 | Number of Patients with minor regression or SD ≧16 wks. ([4]; Gastric/GEJ Adenocarcinoma, 1 patient evaluable): 1 | Number of Patients with minor regression or SD ≧16 wks. ([4]; Head & Neck Cancer, 2 patients evaluable): 2 | Number of Patients with minor regression or SD ≧16 wks. ([4]; Hepatocellular Carcinoma, 2 patients evaluable): 1 | Number of Patients with minor regression or SD ≧16 wks. ([4]; Non-Small Cell Lung Cancer, 1 patient evaluable): 1 | Number of Patients with minor regression or SD ≧16 wks. ([4]; Pancreatic Neuroendocrine, 1 patient evaluable): 1 | Number of Patients with minor regression or SD ≧16 wks. ([4]; Renal Cell Carcinoma, 1 patient evaluable): 1 | Maximum tolerated dose (MTD) ([4]; escalating doses 10 mg to 450 mg once daily, oral, 28-day cycles, 26 patients): not reached | Adverse events ([4]; including grade 1, 2 diarrhea, abdominal cramping, nausea, anorexia): mild GI adverse events | Patients with stable disease (SD), number ([4]; of 20 evaluable patients): 11 | Patients with stable disease (SD), percent ([4]; of 20 evaluable patients): 55% | Patients with tumor regression and/or prolonged stable disease (≧16 weeks), number ([4]; of those patients with SD): 10 | Recommended Phase II Dose (RP2D) ([4]; once daily, oral): 300 mg | Pharmacokinetic exposure relative to predicted therapeutic level ([4]; oral, once daily): well above the predicted therapeutic level | Plasma concentration versus dose ([4]; oral, once daily): dose-dependent increases in plasma concentration up to 300 mg once daily | Tolerability ([4]; oral, once daily, 10 mg to 450 mg): well tolerated | Overall survival ([4]; patients with high levels of nuclear STK33 in archival tissue, P<0.0097): improved | Median progression free survival (PFS) ([4]; patients with high levels of nuclear STK33 in archival tissue, P<0.0273): improved | Median time to progression ([4]; patients with stable disease): 16 weeks
